In general, Kd refers to the free concentration of one partner at which half of the binding sites on the other are occupied at equilibrium, for simple one-to-one binding. A high value points to lower affinity. For orientation: IC50 means the midpoint of a concentration-inhibition curve. Low values mean greater potency, high ones weaker potency.

Experimental findings from PMC7224190, “Pharmacological inhibition of PRMT7 links arginine monomethylation to the cellular stress response” (Nature Communications, 2020) are described below.

For assay [1], the target named is T1, PRMT7 (Homo sapiens, UniProt Q9NVM4).
T1 sequence (Q9NVM4 1-692): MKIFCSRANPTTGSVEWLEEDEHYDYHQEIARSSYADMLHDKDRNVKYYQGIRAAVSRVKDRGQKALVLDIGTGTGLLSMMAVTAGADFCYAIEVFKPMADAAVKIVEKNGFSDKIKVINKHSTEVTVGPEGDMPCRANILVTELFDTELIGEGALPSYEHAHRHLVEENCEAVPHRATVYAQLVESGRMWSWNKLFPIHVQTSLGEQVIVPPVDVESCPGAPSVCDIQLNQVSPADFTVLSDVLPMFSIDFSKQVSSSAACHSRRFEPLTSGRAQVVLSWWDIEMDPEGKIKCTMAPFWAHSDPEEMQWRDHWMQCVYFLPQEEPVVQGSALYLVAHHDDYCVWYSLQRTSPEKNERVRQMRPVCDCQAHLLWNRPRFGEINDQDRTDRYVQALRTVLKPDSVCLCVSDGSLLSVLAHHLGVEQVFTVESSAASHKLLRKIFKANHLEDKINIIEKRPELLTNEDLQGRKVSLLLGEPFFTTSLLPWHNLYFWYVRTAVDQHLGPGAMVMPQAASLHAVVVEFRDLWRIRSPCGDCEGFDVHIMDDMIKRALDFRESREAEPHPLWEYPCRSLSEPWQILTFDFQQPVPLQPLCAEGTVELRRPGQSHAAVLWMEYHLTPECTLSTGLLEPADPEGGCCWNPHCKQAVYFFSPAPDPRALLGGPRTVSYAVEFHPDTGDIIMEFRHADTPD
Kind of assay: SPR kinetics (Biacore T200); also radiometric SPA IC50 […]. The format is binding. Further details: Bio-PRMT7 (amino acids 1–692). (In general: SPR reads the build-up and loss of mass on a sensor chip optically.)

Another assay concerns the target DOT1L (Homo sapiens, UniProt Q8TEK3). Kind of assay: biochemical. Further details: radiometric methyltransferase assay with tritiated SAM, IC50.
The target in a further assay is PRMT1 (Homo sapiens, UniProt Q99873). Kind of assay: biochemical. Further details: radiometric methyltransferase assay with tritiated SAM, IC50.
Another assay addresses T2, PRMT9 (Homo sapiens, UniProt Q6P2P2).
T2 sequence (Q6P2P2 1-845): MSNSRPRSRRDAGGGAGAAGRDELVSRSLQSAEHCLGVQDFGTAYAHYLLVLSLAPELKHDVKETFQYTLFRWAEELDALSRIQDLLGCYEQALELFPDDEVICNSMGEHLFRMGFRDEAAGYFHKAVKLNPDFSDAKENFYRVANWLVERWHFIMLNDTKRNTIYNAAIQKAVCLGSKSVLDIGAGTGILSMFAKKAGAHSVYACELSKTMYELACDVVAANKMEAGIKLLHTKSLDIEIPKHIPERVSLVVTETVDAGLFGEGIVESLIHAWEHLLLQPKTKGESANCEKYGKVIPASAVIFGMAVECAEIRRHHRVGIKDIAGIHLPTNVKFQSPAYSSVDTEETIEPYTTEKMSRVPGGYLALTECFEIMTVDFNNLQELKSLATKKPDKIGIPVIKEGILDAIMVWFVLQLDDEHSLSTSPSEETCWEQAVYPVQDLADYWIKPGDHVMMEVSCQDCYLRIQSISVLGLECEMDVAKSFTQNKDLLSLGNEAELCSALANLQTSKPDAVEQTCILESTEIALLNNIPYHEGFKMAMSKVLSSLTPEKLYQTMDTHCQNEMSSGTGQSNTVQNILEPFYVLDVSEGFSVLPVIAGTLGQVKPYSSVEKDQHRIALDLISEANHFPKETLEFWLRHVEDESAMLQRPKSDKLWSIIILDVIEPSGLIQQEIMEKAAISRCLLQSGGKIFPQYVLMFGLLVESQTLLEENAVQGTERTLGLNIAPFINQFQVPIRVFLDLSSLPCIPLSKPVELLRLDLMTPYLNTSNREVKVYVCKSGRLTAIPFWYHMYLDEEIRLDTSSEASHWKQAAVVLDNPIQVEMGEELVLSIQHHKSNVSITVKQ
The assay can be described thus: biochemical. On the set-up: radiometric methyltransferase assay with tritiated SAM, IC50.

A further assay deals with T3, BCDIN3D (Homo sapiens, UniProt Q7Z5W3).
T3 sequence (Q7Z5W3 1-292): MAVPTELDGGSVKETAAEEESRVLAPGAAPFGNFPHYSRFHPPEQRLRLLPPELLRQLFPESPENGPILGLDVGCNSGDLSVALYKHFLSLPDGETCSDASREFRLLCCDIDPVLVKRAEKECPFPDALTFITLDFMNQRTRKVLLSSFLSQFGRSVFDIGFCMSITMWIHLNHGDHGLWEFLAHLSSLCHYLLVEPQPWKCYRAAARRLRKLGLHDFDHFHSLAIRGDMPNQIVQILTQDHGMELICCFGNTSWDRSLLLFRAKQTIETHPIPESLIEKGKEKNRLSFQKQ
The assay can be described thus: biochemical. On the set-up: radiometric methyltransferase assay with tritiated SAM, IC50.

Assay [2] concerns the target T1, PRMT7. The assay can be described thus: radiometric SPA methyltransferase assay, 3H-SAM and H2B ([…]). It counts as biochemical.

Where only a bound is given, the exact number is not on record here.

DOT1L, sequence (Q8TEK3 whole entry): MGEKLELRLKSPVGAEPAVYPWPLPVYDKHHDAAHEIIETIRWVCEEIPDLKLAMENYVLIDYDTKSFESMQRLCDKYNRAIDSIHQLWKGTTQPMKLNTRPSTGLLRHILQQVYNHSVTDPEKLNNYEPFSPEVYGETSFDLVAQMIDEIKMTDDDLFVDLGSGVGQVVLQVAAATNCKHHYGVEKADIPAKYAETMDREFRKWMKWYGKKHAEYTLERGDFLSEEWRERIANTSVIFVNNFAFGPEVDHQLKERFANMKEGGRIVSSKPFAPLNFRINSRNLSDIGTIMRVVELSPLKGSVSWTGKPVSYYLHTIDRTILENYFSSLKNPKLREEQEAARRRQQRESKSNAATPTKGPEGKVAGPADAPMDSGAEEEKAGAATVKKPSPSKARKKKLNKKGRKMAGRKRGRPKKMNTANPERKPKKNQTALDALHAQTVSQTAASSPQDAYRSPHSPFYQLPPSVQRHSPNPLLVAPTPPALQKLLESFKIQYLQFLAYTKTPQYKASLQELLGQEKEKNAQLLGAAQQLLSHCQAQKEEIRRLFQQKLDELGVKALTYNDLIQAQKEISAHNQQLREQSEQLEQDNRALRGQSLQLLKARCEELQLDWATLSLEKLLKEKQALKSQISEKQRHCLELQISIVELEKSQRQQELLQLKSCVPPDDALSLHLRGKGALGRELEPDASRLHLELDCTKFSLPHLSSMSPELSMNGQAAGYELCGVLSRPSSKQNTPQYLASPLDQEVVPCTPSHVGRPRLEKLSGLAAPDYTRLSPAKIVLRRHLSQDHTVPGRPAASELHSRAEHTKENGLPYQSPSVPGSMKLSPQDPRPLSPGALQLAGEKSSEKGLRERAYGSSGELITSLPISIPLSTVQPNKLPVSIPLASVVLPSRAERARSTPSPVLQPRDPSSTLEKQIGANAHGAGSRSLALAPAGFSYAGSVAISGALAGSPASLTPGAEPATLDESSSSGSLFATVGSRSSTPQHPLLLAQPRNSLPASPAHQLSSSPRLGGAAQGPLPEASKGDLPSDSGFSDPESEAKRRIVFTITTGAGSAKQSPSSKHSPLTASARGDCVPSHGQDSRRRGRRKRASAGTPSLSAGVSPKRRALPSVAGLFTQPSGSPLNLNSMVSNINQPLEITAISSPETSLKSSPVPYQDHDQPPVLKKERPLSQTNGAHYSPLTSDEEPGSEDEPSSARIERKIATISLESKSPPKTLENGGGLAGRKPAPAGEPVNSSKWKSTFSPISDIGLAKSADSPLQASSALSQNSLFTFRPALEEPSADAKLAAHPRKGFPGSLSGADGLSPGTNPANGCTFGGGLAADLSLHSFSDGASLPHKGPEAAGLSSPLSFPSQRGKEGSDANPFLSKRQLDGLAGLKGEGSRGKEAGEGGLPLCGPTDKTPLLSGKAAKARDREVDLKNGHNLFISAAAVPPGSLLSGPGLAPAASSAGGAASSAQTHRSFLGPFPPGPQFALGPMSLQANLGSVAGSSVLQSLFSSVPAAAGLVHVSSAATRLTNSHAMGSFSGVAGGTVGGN
PRMT1, sequence (Q99873 whole entry): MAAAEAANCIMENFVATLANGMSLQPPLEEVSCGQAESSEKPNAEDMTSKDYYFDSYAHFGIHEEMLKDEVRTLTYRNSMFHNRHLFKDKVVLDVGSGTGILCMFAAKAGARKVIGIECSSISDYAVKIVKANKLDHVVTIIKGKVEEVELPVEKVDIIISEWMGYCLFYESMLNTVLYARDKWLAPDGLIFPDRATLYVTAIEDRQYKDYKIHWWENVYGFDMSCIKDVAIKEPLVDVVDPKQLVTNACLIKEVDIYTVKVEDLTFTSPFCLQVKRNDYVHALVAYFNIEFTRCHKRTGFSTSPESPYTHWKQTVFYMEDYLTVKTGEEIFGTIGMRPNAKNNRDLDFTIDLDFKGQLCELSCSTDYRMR

As to `Nc1ncnc2c1ncn2[C@@H]1O[C@H](CSCCCCNCc2cccc(-c3ccc(Cl)cc3)c2)[C@@H](O)[C@H]1O` [SGC8158], the Kd at PRMT7 [1] worked out at 6.4 ± 1.2 nM. The IC50 against DOT1L is 1700 nM; at PRMT1, 12000 nM; against PRMT9, 160 nM; at BCDIN3D, 1100 nM.
On PRMT7 [2], `Nc1ncnc2c1ncn2[C@@H]1O[C@H](CSCCCNCc2cccc(-c3ccc(Cl)cc3)c2)[C@@H](O)[C@H]1O` [SGC8172] displayed an IC50 of less than 2.5 nM.
